Source: paper PMC6713104, “New peptide derived antimalaria and antimicrobial agents bearing sulphonamide moiety” (Journal of Enzyme Inhibition and Medicinal Chemistry, 2019)
≈ marks a conversion by molar mass, not a printed value. Where two headings read alike, the source gives them in different places.

Legend:
E. coli = experiment: Antimicrobial MIC, agar cup diffusion; type: cell-based; details: Escherichia coli, read-out: MIC (minimum inhibitory concentration)
Liver function tests = type: in vivo; design: Glucose: unit not given here; details: mice, 10 mg/kg
Text: (§1) Twenty-four hours before the injecting the compounds, the blood sample of five mice was taken and it was also taken after the last day of treatment, the animals were sacrificed by cervical dislocation and the blood samples were collected by heart puncture. The blood samples for haematological parameters (red blood cell (RBC) count, white blood cell (WBC) count, packed cell volume (PCV), and hemoglobin (HGB)) were collected into EDTA bottles and analyzed using an automated machine (Automated CBC Analyzer: Sysmex KX-21). The liver function tests carried out with the blood of the rats fed with the sulfonamide derivatives were aspartate aminotransperase (AST), alanine transaminase (ALT) and alkaline phosphatase (ALP). Standard laboratory procedure according to Reitman and Franke[32] was used for the determination of parameters.

B. subtilis = experiment: Antimicrobial MIC, agar cup diffusion; type: cell-based; details: for MIC: Bacillus subtilis, B. subtilis, read-out: MIC (minimum inhibitory concentration); for activity against Bacillus compared with ciprofloxacin: in words
A. niger = experiment: Antimicrobial MIC, agar cup diffusion; type: cell-based; details: Aspergillus niger, read-out: MIC (minimum inhibitory concentration)
[1] = Renal or kidney function test; type: in vivo; details: mice, 10 mg/kg
Text: as §1, with “KX-21). Kidney” for “KX-21). The liver”, “derivatives were, creatinine” for “derivatives were aspartate aminotransperase (AST), alanine transaminase (ALT)”, “and albunim. The method reported by Kaplan” for “and alkaline phosphatase (ALP). Standard laboratory procedure according to Reitman”, “and Tengv[33]” for “and Franke[32]”, “used in” for “used for”, “of creatinine.” for “of parameters.”

C. albicans = experiment: Antimicrobial MIC, agar cup diffusion; type: cell-based; details: Candida albicans, read-out: MIC (minimum inhibitory concentration)
K. pneumoniae = experiment: Antimicrobial MIC, agar cup diffusion; type: cell-based; details: Klebsiella pneumoniae, read-out: MIC (minimum inhibitory concentration)
[2] = tested on: Plasmodium berghei infection in mice; experiment: In vivo antimalaria test; details: P. berghei infected mice; for ability to inhibit parasitaemia compared to the control drug: in words; for inhibition in vivo at 100 mg/kg / inhibition in vivo at 200 mg/kg: Plasmodium berghei, oral
Protocol: Experimental Design and Treatment of Mice. Methods of Peter et al.[30] and Kalra et al.[31] for antiplasmodial assay against Plasmodium berghei infection in mice with some modifications were employed. About eighty infected mice were randomly divided into five groups, each having […] mice. The inoculum was prepared from a donor mouse with rising parasitemia of 60.42%. After 7 days of infection, animals begin to receive treatment (100 and 200 mg/kg b wt.) of the synthesized compounds (7a–7n) for 12 days with constant check of the percentage of parasitemia after a 4-day interval. Artemisinin (100 and 200 mg/kg body weight.) was given to the other mice in group three as positive control, group four was not treated and group five was not infected. All the compounds and the drugs were given orally by using a standard intragastric tube. For all parasitemia determination, blood samples were collected from tail snip of each mouse and thin smears prepared and stained with 10% Giemsa solution. The uniform fields of each stained slide (for each mouse) were examined under microscope with an oil immersion objective of 100X magnification power and average percent of parasitemia was determined.
To determine the in vivo activity, the compounds were tested against P. berghei NK(65 Strain) infection mice., the animals were obtained from Nigeria institute for Trypanosoma and onchocercarioses Research (NTIR) Vom, Plateau State Nigeria. The permission and approval for the use of animals in this experiment were granted by the Animal Ethics Committee, Federal College of Vetrenary Medical Laboratory, Vom, Plateau State. Method of Peter et al.[30], for antiplasmodial assay against P. berghei in mice with some modification were employed. Artemisimin was used as treated control of the experiments. The percentage inhibition of parasite multiplication was calculated comparing the treated group with untreated group by means of the following formula[39] [(A − B)/A] × 100; where A = parasitaemia in the untreated group and B = parasitemia in the test group. […] Most of the compounds were active against P. berghei after 7 days post-infection by reducing the parasiteamia by at least 40% when in a dose of 100 mg/kg (Table 5). The inhibition of parasitaemia increased on 12th day post infection for almost all the compounds. […] However in consideration of the compounds ability to inhibit parasitaemia to the control drug. […] These compounds should be considered for further studies because of its promising activities.

Haematological analysis = type: in vivo, mice
Text: Twenty-four hours before the injecting the compounds, the blood sample of five mice was taken and it was also taken after the last day of treatment, the animals were sacrificed by cervical dislocation and the blood samples were collected by heart puncture. The blood samples for haematological parameters (red blood cell (RBC) count, white blood cell (WBC) count, packed cell volume (PCV), and hemoglobin (HGB)) were collected into EDTA bottles and analyzed using an automated machine (Automated CBC Analyzer: Sysmex KX-21).
The blood samples for haematological parameters (red blood cell (RBC) count, white blood cell (WBC) count, packed cell volume (PCV), and haemoglobin (HGB)) were collected into EDTA bottles and analyzed using an automated machine (Automated CBC Analyzer: Sysmex KX-21) (Table 8). From the analysis, even though there is a decrease in the value of RBC, PCV and HB, it is observed that there is no significant changes in the parameters that were analyzed for the control and the test compounds.

P. falciparum strain W2 = experiment: In vitro antimalarial assay; type: cell-based; details: for MIC: Plasmodium falciparum, W2, P. falciparum
S. typhi = experiment: Antimicrobial MIC, agar cup diffusion; type: cell-based; details: Salmonella enterica, read-out: MIC (minimum inhibitory concentration)
[3] = 168 h, read-out: % inhibition 7 days post-treatment (100 mg/kg), day 7
[4] = 168 h, read-out: % inhibition 7 days post-treatment (200 mg/kg), day 7
[5] = 288 h, read-out: % inhibition 12 days post-treatment (100 mg/kg), day 12
[6] = 288 h, read-out: % inhibition 12 days post-treatment (200 mg/kg), day 12
[7] = 48 h, >99% of parasites inhibited from developing to schizonts

SMILES | MIC (E. coli) | ALT (Liver function tests; After) | AST (Liver function tests; After) | Bilirubin (Liver function tests; After) | Glucose (Liver function tests; After) | T.P. (Liver function tests; After) | ALT (Liver function tests; Before) | AST (Liver function tests; Before) | Bilirubin (Liver function tests; Before) | MIC (B. subtilis) | MIC (A. niger) | MIC (C. albicans) | MIC (K. pneumoniae) | inhibition in vivo at 100 mg/kg [2, 3] | inhibition in vivo at 200 mg/kg [2, 4] | inhibition in vivo at 100 mg/kg [2, 5] | inhibition in vivo at 200 mg/kg [2, 6] | melting point | MIC (P. falciparum strain W2; [7]) | MIC (S. typhi) | further results
Cc1ccc(S(=O)(=O)NC(C)C(=O)NCC(=O)Nc2cccc(Cl)c2)cc1 (stereo not drawn) [Compound 7h, N-(2-((3-chlorophenyl)amino)-2-oxoethyl)-2–(4-methylphenylsulfonamido)propanamide] | 239 µg/mL (≈ 583 µM) | 24.5 µ/L | 69.5 µ/L | 0.3 mg/dL | 5.5 | 5.5 g/dL | 25.4 µ/L | 65.0 µ/L | 0.4 mg/dL | 214 µg/mL (≈ 522 µM) | 31.6 µg/mL (≈ 77.1 µM) | 34 µg/mL (≈ 82.9 µM) | 5250 µg/mL (≈ 12800 µM) | 61.4% | 49.9% | 57.8% | 55.2% | 120 to 122 °C | 0.03 µM (≈ 0.0123 µg/mL) | 1290 µg/mL (≈ 3140 µM) | Glucose (Liver function tests; Before): 5.9; T.P. (Liver function tests; Before): 6.0 g/dL; Albumin ([1]; After): 3.9 g/dL; Creatinine ([1]; After): 0.3 mg/dL; Albumin ([1]; Before): 3.9 g/dL; Creatinine ([1]; Before): 0.3 mg/dL; ability to inhibit parasitaemia compared to the control drug [2]: almost the same or better activity compared to the artemisinin; HB (Haematological analysis; After treatment): 10.0 g/dL; PCV (Haematological analysis; After treatment): 34%; RBC (Haematological analysis; After treatment): 5.9 × 10^6 mm^3; WBC (Haematological analysis; After treatment): 9.3 × 10^3 mm^3; HB (Haematological analysis; Before treatment): 13.4 g/dL; PCV (Haematological analysis; Before treatment): 39%; RBC (Haematological analysis; Before treatment): 7.3 × 10^6 mm^3; WBC (Haematological analysis; Before treatment): 9.4 × 10^3 mm^3; MIC (P. falciparum strain W2): 50 µM (≈ 20.5 µg/mL); in vitro antimalarial activity relative to other compounds and standard drugs (P. falciparum strain W2; in words): best activity
CC(NS(=O)(=O)c1ccccc1)C(=O)NCC(=O)Nc1ccc2ccccc2c1 (stereo not drawn) [Compound 7g, N-(2-(naphthalene-2-ylamino)-2-oxoethyl)-2-(phenylsulfonamido)propanamide] |  |  |  |  |  |  |  |  |  | 141 µg/mL (≈ 343 µM) | 158 µg/mL (≈ 384 µM) | 29.7 µg/mL (≈ 72.2 µM) | 166 µg/mL (≈ 403 µM) | 27.5% | 54.7% | 36.8% | 51.9% | 170 to 172 °C | 3.23 µM (≈ 1.33 µg/mL) | 79 µg/mL (≈ 192 µM) | activity against Bacillus compared with ciprofloxacin (B. subtilis): greater activity against Bacillus than ciprofloxacin
Cc1ccc(NC(=O)CNC(=O)C(C)NS(=O)(=O)c2ccc(C)cc2)cc1 (stereo not drawn) [Compound 7l, 2–(4-methylphenylsulfonamido)-N-(2-oxo-2-(p-tolylamino)ethyl)propanamide] | 169 µg/mL (≈ 434 µM) |  |  |  |  |  |  |  |  | 245 µg/mL (≈ 629 µM) | 123 µg/mL (≈ 316 µM) | 174 µg/mL (≈ 447 µM) | 107 µg/mL (≈ 275 µM) | 38.2% | 60.7% | 41.7% | 74.6% | 120 to 122 °C | 0.93 µM (≈ 0.362 µg/mL) | 57 µg/mL (≈ 146 µM) | 
Cc1ccc(NC(=O)CNC(=O)C(C)NS(=O)(=O)c2ccccc2)cc1 (stereo not drawn) [Compound 7e] | 6330 µg/mL (≈ 16900 µM) | 22.0 µ/L | 60.5 µ/L | 0.2 mg/dL | 5.0 | 4.5 g/dL | 24.0 µ/L | 64.0 µ/L | 0.3 mg/dL |  | 2090 µg/mL (≈ 5560 µM) | 28.8 µg/mL (≈ 76.7 µM) |  | 62.3% | 40.2% | 66.7% | 50.7% | 160 to 162 °C | 0.05 µM (≈ 0.0188 µg/mL) | 194 µg/mL (≈ 517 µM) | Glucose (Liver function tests; Before): 5.8; T.P. (Liver function tests; Before): 5.8 g/dL; Albumin ([1]; After): 3.5 g/dL; Creatinine ([1]; After): 0.3 mg/dL; Albumin ([1]; Before): 4.1 g/dL; Creatinine ([1]; Before): 0.3 mg/dL; ability to inhibit parasitaemia compared to the control drug [2]: almost the same or better activity compared to the artemisinin; HB (Haematological analysis; After treatment): 11.0 g/dL; PCV (Haematological analysis; After treatment): 35%; RBC (Haematological analysis; After treatment): 6.0 × 10^6 mm^3; WBC (Haematological analysis; After treatment): 10.5 × 10^3 mm^3; HB (Haematological analysis; Before treatment): 14.1 g/dL; PCV (Haematological analysis; Before treatment): 36%; RBC (Haematological analysis; Before treatment): 6.85 × 10^6 mm^3; WBC (Haematological analysis; Before treatment): 12.2 × 10^3 mm^3; MIC (P. falciparum strain W2): 30 µM (≈ 11.3 µg/mL)
CC(NS(=O)(=O)c1ccccc1)C(=O)NCC(=O)Nc1ccc(Cl)cc1 (stereo not drawn) [Compound 7b] | 467 µg/mL (≈ 1180 µM) |  |  |  |  |  |  |  |  | 129 µg/mL (≈ 326 µM) | 100 µg/mL (≈ 253 µM) | 135 µg/mL (≈ 341 µM) | 1690 µg/mL (≈ 4270 µM) | 51.3% | 57.6% | 55.2% | 53.4% | 140 to 142 °C | 0.87 µM (≈ 0.344 µg/mL) | 602 µg/mL (≈ 1520 µM) | activity against Bacillus compared with ciprofloxacin (B. subtilis): greater activity against Bacillus than ciprofloxacin
